This passage reports IC50 results from patent publication US12552844B2, “De-epitoped alpha gliadin and use of same for the management of celiac disease and gluten sensitivity” (Ukko Inc., priority 2019, dated 2026).

pIC50: −log10 of the molar value. Where no end group is shown, it is not given here.

A word on the pIC50: it is −log10 of the IC50, conventionally taken in molar units. A high value points to a small IC50.

The test concerns the target MHC II molecules. The test is described as follows: MHC/peptide competition binding assay with a radiolabelled known MHC binding peptide. The following applies: purified MHC, incubation 2-4 days, non-binding defined as IC50≥30,000 nM. How it is done: Measurement of MHC/peptide interactions: Computational prediction algorithm was used to generate a list of putative non-binding peptides. Those peptides were synthesized and binding to MHC was measured as described in Sidney J et al, 2013.
Briefly, competition assays using different concentrations of WT and modified gluten peptides are conducted by diluting the peptides in NP40 buffer, and incubation for 2-4 days with purified MHC and a radiolabelled known MHC binding peptide. MHC II molecules are purified by affinity chromatography, and peptides are radiolabeled using the chloramine T method. After an incubation period, the bound and unbound radiolabeled species are separated, and their relative amounts are determined by either size-exclusion gel-filtration chromatography or monoclonal antibody capture of MHC. The percent of bound radioactivity is then determined. For each modified peptide, IC50 values of WT and modified peptide are calculated. The validated gluten peptide epitopes are analyzed for MHC binding as a positive control. Some of the peptides are tested also in a deamidated form.
FPPQPHPFPPQPQPF [Variant P3h] showed a pIC50 of under 4.40.

HLPGPQPHLSYPQPH [Variant P2e] showed a negative-log IC50 (pIC50) of under 4.40.

Consider LQLQPFPQPHLFPPQ [Variant P1c], for which the pIC50 is 4.41. As for LQLQPFPQPPLPYGQ [Variant P1e], the pIC50 was 4.51. PGGQPHLPGGQPQPF [Variant P3g] had a negative logarithm of the IC50 (pIC50) of under 4.40.

Regarding PQPFPPLPYPQPQSF [Variant P3i], the pIC50 was under 4.40. PYSQPHRPYHQPQPF [Variant P3e] had a pIC50 of under 4.40. In turn, QLPYSQPHRPYHQPQ [Variant P2d] gave a pIC50 of under 4.40. In the case of SLPMPQPSLRYRQPS [Variant P2i] it was under 4.40. As for TLPSPQPTLGYGQPT [Variant P2h], the negative-log IC50 (pIC50) is under 4.40.
